Source: ChEMBL document CHEMBL1158657, “Improved antitumor activity by modification of nogalamycin” (1979)
In brackets after ≈: the same amount, converted by molar mass. Activity calls are given as the source filed them. The calls are words filed in the database; no cut-off is given here.

Tests used:
L1210 [1] = assay: Cytotoxicity against mouse L1210 cells; format: functional; settings: for IC50: Mus musculus, L1210, read-out: ID50
P388 [2] = assay: Antitumor activity against mouse P388 cells xenografted in mouse assessed as increase in life span at 12.5 mg/kg/day, ip after 9 days; format: functional; settings: route intraperitoneal
B16 [3] = assay: Antitumor activity against mouse B16 cells xenografted in mouse assessed as increase in life span at 0.5 to 1 mg/kg/day, ip after 9 days; format: functional; settings: route intraperitoneal
P388 [4] = assay: Antitumor activity against mouse P388 cells xenografted in mouse assessed as increase in life span at 1 mg/kg/day, ip after 9 days; format: functional; settings: route intraperitoneal
L1210 [5] = assay: Antitumor activity against mouse L1210 cells xenografted in mouse assessed as increase in life span at 1 mg/kg/day, ip after 9 days; format: functional; settings: route intraperitoneal
L1210 [6] = assay: Inhibition of DNA synthesis in mouse L1210 cells; format: functional; settings: read-out: ID50 (the source's name)
L1210 [7] = assay: Inhibition of RNA synthesis in mouse L1210 cells; format: functional; settings: read-out: ID50 (the source's name)
L1210 [8] = assay: Inhibition of protein synthesis in mouse L1210 cells; format: functional, cell-based
L1210 [9] = assay: Inhibition of RNA synthesis in mouse L1210 cells at 10 nmole/ml; format: functional
P388 [10] = assay: Antitumor activity against mouse P388 cells xenografted in mouse assessed as increase in life span at 6.3 mg/kg/day, ip after 9 days; format: functional; settings: route intraperitoneal
B16 [11] = assay: Antitumor activity against mouse B16 cells xenografted in mouse assessed as increase in life span at 10 mg/kg/day, ip after 9 days; format: functional; settings: route intraperitoneal
P388 [12] = assay: Antitumor activity against mouse P388 cells xenografted in mouse assessed as increase in life span at 25 mg/kg/day, ip after 9 days; format: functional; settings: route intraperitoneal
P388 [13] = assay: Antitumor activity against mouse P388 cells xenografted in mouse assessed as increase in life span at 20 mg/kg/day, ip after 9 days; format: functional; settings: route intraperitoneal
L1210 [14] = assay: Antitumor activity against mouse L1210 cells xenografted in mouse assessed as increase in life span at 20 mg/kg/day, ip after 9 days; format: functional; settings: route intraperitoneal
B16 [15] = assay: Antitumor activity against mouse B16 cells xenografted in mouse assessed as increase in life span at 16 mg/kg/day, ip after 9 days; format: functional; settings: route intraperitoneal
P388 [16] = assay: Antitumor activity against mouse P388 cells xenografted in mouse assessed as increase in life span at 4 mg/kg/day, ip after 9 days; format: functional; settings: route intraperitoneal
P388 [17] = assay: Antitumor activity against mouse P388 cells xenografted in mouse assessed as increase in life span at 3.1 mg/kg/day, ip after 9 days; format: functional; settings: route intraperitoneal
B16 [18] = assay: Antitumor activity against mouse B16 cells xenografted in mouse assessed as increase in life span at 2 to 5 mg/kg/day, ip after 9 days; format: functional; settings: route intraperitoneal
P388 [19] = assay: Antitumor activity against mouse P388 cells xenografted in mouse assessed as increase in life span at 5 mg/kg/day, ip after 9 days; format: functional; settings: route intraperitoneal
L1210 [20] = assay: Antitumor activity against mouse L1210 cells xenografted in mouse assessed as increase in life span at 2.5 mg/kg/day, ip after 9 days; format: functional; settings: route intraperitoneal
P388 [21] = assay: Antitumor activity against mouse P388 cells xenografted in mouse assessed as increase in life span at 50 mg/kg/day, ip after 9 days; format: functional; settings: route intraperitoneal
B16 [22] = assay: Antitumor activity against mouse B16 cells xenografted in mouse assessed as increase in life span at 12 mg/kg/day, ip after 9 days; format: functional; settings: route intraperitoneal

With `CCO[C@H]1C[C@@](C)(O)[C@H](C(=O)OC)c2cc3c(c(O)c21)C(=O)c1c(O)cc2c(c1C3=O)O[C@@H]1O[C@@]2(C)[C@H](O)[C@@H](N(C)C)[C@@H]1O` the IC50 (L1210 [1]) was 0.15 µg/mL (≈ 0.244 µM) and the Activity (P388 [2]) was 70%.

Compound `COC(=O)[C@@H]1c2cc3c(c(O)c2[C@@H](O[C@@H]2O[C@@H](C)[C@H](OC)[C@@](C)(OC)[C@H]2OC)C[C@]1(C)O)C(=O)c1c(O)cc2c(c1C3=O)O[C@@H]1O[C@@]2(C)[C@H](O)[C@@H](N(C)C)[C@@H]1O` [NOGALAMYCIN] has an Activity (B16 [3]) of 71%, an ID95 (L1210 [1]) of 0.18 µg/mL (≈ 0.228 µM) and an IC50 (L1210 [1]) of 0.078 µg/mL (≈ 0.099 µM). It also gave an Activity (P388 [4]) of 49%, an Activity (L1210 [5]) of 30% and an IC50 (L1210 [6]) of 3.3 µM. The IC50 (L1210 [7]) was 0.4 µM, the Activity (L1210 [8]) was “inactive” and the “inhibition (INH)” value (L1210 [9]) was 99.9%.

With `CCCO[C@H]1C[C@@](C)(O)Cc2cc3c(c(O)c21)C(=O)c1c(O)cc2c(c1C3=O)O[C@@H]1O[C@@]2(C)[C@H](O)[C@@H](N(C)C)[C@@H]1O` the IC50 (L1210 [1]) was 0.1 µg/mL (≈ 0.176 µM) and the Activity (P388 [10]) was 34%.

Work on `COC(=O)[C@@H]1c2cc3c(c(O)c2[C@@H](OC)C[C@@]1(C)O)C(=O)c1c(O)cc2c(c1C3=O)O[C@@H]1O[C@@]2(C)[C@H](O)[C@@H](N(C)C)[C@@H]1O` yielded an Activity (B16 [11]) of 35%, an Activity (P388 [12]) of 98% and an IC50 (L1210 [1]) of 0.13 µg/mL (≈ 0.217 µM). For the same compound, the IC50 (L1210 [6]) was 7 µM and the IC50 (L1210 [7]) was 7.8 µM.

For `CO[C@H]1[C@H](O[C@H]2C[C@](C)(O)[C@H](C(=O)O)c3cc4c(c(O)c32)C(=O)c2c(O)cc3c(c2C4=O)O[C@@H]2O[C@@]3(C)[C@H](O)[C@@H](N(C)C)[C@@H]2O)O[C@@H](C)[C@H](OC)[C@@]1(C)OC` [NOGALAMYCINIC ACID], the ID95 (L1210 [1]) was 1.94 µg/mL (≈ 2.51 µM), the IC50 (L1210 [1]) was 1 µg/mL (≈ 1.29 µM) and the Activity (P388 [13]) was 56%. The Activity (L1210 [14]) was 18% and the “inhibition (INH)” value (L1210 [9]) was 86.7%.

With `CO[C@H]1C[C@](C)(O)Cc2cc3c(c(O)c21)C(=O)c1c(O)cc2c(c1C3=O)O[C@@H]1O[C@@]2(C)[C@H](O)[C@@H](N(C)C)[C@@H]1O` the Activity (B16 [15]) was 105%, the IC50 (L1210 [1]) was 0.41 µg/mL (≈ 0.757 µM) and the Activity (P388 [2]) was 76%. The IC50 (L1210 [6]) was 11.6 µM, the IC50 (L1210 [7]) was 8.3 µM and the “inhibition (INH)” value (L1210 [9]) was 91.2%.

For `CC(C)O[C@H]1C[C@@](C)(O)Cc2cc3c(c(O)c21)C(=O)c1c(O)cc2c(c1C3=O)O[C@@H]1O[C@@]2(C)[C@H](O)[C@@H](N(C)C)[C@@H]1O`, the Activity (P388 [16]) was 20%.

`CCCO[C@H]1C[C@](C)(O)Cc2cc3c(c(O)c21)C(=O)c1c(O)cc2c(c1C3=O)O[C@@H]1O[C@@]2(C)[C@H](O)[C@@H](N(C)C)[C@@H]1O` showed an IC50 (L1210 [1]) of 0.33 µg/mL (≈ 0.579 µM) and an Activity (P388 [17]) of 50%.

`CO[C@H]1[C@H](O[C@H]2C[C@](C)(O)Cc3cc4c(c(O)c32)C(=O)c2c(O)cc3c(c2C4=O)O[C@@H]2O[C@@]3(C)[C@H](O)[C@@H](N(C)C)[C@@H]2O)O[C@@H](C)[C@H](OC)[C@@]1(C)OC` [DISNOGAMYCIN] was tested, and the Activity (B16 [18]) was 61%, the Activity (P388 [19]) was 93% and the ID95 (L1210 [1]) was 0.27 µg/mL (≈ 0.37 µM). The IC50 (L1210 [1]) was 0.18 µg/mL (≈ 0.247 µM), the Activity (L1210 [20]) was 27% and the IC50 (L1210 [6]) was 3 µM. For the same compound, the IC50 (L1210 [7]) was 0.5 µM.

`COC(=O)[C@@H]1c2cc3c(c(O)c2[C@@H](N(C)C)C[C@]1(C)O)C(=O)c1c(O)cc2c(c1C3=O)O[C@@H]1O[C@@]2(C)[C@H](O)[C@@H](N(C)C)[C@@H]1O` gave an Activity (P388 [21]) of 54%.

`CCCO[C@H]1C[C@@](C)(O)[C@H](C(=O)OC)c2cc3c(c(O)c21)C(=O)c1c(O)cc2c(c1C3=O)O[C@@H]1O[C@@]2(C)[C@H](O)[C@@H](N(C)C)[C@@H]1O` showed an IC50 (L1210 [1]) of 0.3 µg/mL (≈ 0.478 µM).

Compound `CN[C@H]1C[C@](C)(O)[C@H](C(=O)OC)c2cc3c(c(O)c21)C(=O)c1c(O)cc2c(c1C3=O)O[C@@H]1O[C@@]2(C)[C@H](O)[C@@H](N(C)C)[C@@H]1O` has an Activity (P388 [12]) of 58%.

`CCO[C@H]1C[C@](C)(O)Cc2cc3c(c(O)c21)C(=O)c1c(O)cc2c(c1C3=O)O[C@@H]1O[C@@]2(C)[C@H](O)[C@@H](N(C)C)[C@@H]1O` showed an Activity (B16 [22]) of 34%, an IC50 (L1210 [1]) of 0.43 µg/mL (≈ 0.774 µM) and an IC50 (L1210 [6]) of 3.2 µM. It also gave an IC50 (L1210 [7]) of 0.8 µM.
